The values below come from US4971965A, “Antibiotics TAN-1057” (Takeda Chemical Industries, Ltd., priority 1988, dated 1990).

Where a name gives a salt, the structure may show the parent alone.

One data set is described as follows: Acidity or basicity. It is filed as physicochemical.
The nature of another data set: Solubility. It is filed as physicochemical.

Turning to `CN1C(=O)C[C@H](CCCNC(=N)N)NC(=O)[C@H]1CNC(=N)NC(N)=O` [TAN-1057C dihydrochloride], the Acidity or basicity result in the data set “Acidity or basicity” is reported as “neutral”. The Solubility result in the data set “Solubility” (acetone) is “Sparingly soluble”; in “Solubility” (diethyl ether), “Sparingly soluble”; in “Solubility” (dimethylsulfoxide) it was “Soluble”; in the data set “Solubility” (ethyl acetate), “Sparingly soluble”; in the data set “Solubility” (methanol), “Soluble”; in the data set “Solubility” (water), “Readily soluble”.
On to `CN(C(=O)C[C@@H](N)CCCNC(=N)N)[C@H]1CNC(NC(N)=O)=NC1=O` [TAN-1057A trihydrochloride], for which the Acidity or basicity result in the data set “Acidity or basicity” is recorded as “neutral”. Besides, the Solubility result is given as “Sparingly soluble” in the data set “Solubility” (acetone); “Sparingly soluble” in “Solubility” (diethyl ether); “Soluble” in the data set “Solubility” (dimethylsulfoxide); “Sparingly soluble” in “Solubility” (ethyl acetate); “Soluble” in “Solubility” (methanol); “Readily soluble” in the data set “Solubility” (water).
With `CN1C(=O)C[C@H](CCCNC(=N)N)NC(=O)[C@@H]1CNC(=N)NC(N)=O` [TAN-1057D dihydrochloride], in “Acidity or basicity”, the Acidity or basicity result is given as “neutral”. In addition, the Solubility entry in “Solubility” (acetone) is reported as “Sparingly soluble”; in “Solubility” (diethyl ether) it was “Sparingly soluble”; in “Solubility” (dimethylsulfoxide) it was “Soluble”; in “Solubility” (ethyl acetate), “Sparingly soluble”; in the data set “Solubility” (methanol) it was “Soluble”; in “Solubility” (water) it was “Readily soluble”.
